Assay results published in ChEMBL document CHEMBL4342480, “Design of Dual Inhibitors of Soluble Epoxide Hydrolase and LTA4 Hydrolase” (ACS Med Chem Lett, 2020).

Key:
Format in all cases: functional
Macrophage [1] = assay: Antiinflammatory activity in Escherichia coli O6:K2:H1-induced human M1 macrophage assessed as change in 5-HETE level at 1 uM preincubated for 10 mins followed by Escherichia coli O6:K2:H1-stimulation and measured after 180 mins by UPLC-MS/MS analysis relative to control
Macrophage [2] = assay: Antiinflammatory activity in Escherichia coli O6:K2:H1-induced human M1 macrophage assessed as change in LTB4 level at 1 uM preincubated for 10 mins followed by Escherichia coli O6:K2:H1-stimulation and measured after 180 mins by UPLC-MS/MS analysis relative to control
Macrophage [3] = assay: Antiinflammatory activity in Escherichia coli O6:K2:H1-induced human M1 macrophage assessed as change in 17-HDHA level at 10 uM preincubated for 10 mins followed by Escherichia coli O6:K2:H1-stimulation and measured after 180 mins by UPLC-MS/MS analysis relative to control
Macrophage [4] = assay: Antiinflammatory activity in Escherichia coli O6:K2:H1-induced human M1 macrophage assessed as change in 15-HETE level at 10 uM preincubated for 10 mins followed by Escherichia coli O6:K2:H1-stimulation and measured after 180 mins by UPLC-MS/MS analysis relative to control
Macrophage [5] = assay: Antiinflammatory activity in Escherichia coli O6:K2:H1-induced human M1 macrophage assessed as change in 15-HEPE level at 10 uM preincubated for 10 mins followed by Escherichia coli O6:K2:H1-stimulation and measured after 180 mins by UPLC-MS/MS analysis relative to control
Macrophage [6] = assay: Antiinflammatory activity in Escherichia coli O6:K2:H1-induced human M1 macrophage assessed as change in 7-HDHA level at 10 uM preincubated for 10 mins followed by Escherichia coli O6:K2:H1-stimulation and measured after 180 mins by UPLC-MS/MS analysis relative to control
Macrophage [7] = assay: Antiinflammatory activity in Escherichia coli O6:K2:H1-induced human M1 macrophage assessed as change in 5-HETE level at 10 uM preincubated for 10 mins followed by Escherichia coli O6:K2:H1-stimulation and measured after 180 mins by UPLC-MS/MS analysis relative to control
Macrophage [8] = assay: Antiinflammatory activity in Escherichia coli O6:K2:H1-induced human M2 macrophage assessed as change in 14-HDHA level at 1 uM preincubated for 10 mins followed by Escherichia coli O6:K2:H1-stimulation and measured after 180 mins by UPLC-MS/MS analysis relative to control
Macrophage [9] = assay: Antiinflammatory activity in Escherichia coli O6:K2:H1-induced human M2 macrophage assessed as change in PGD2 level at 1 uM preincubated for 10 mins followed by Escherichia coli O6:K2:H1-stimulation and measured after 180 mins by UPLC-MS/MS analysis relative to control
Macrophage [10] = assay: Antiinflammatory activity in Escherichia coli O6:K2:H1-induced human M2 macrophage assessed as change in 14-HDHA level at 10 uM preincubated for 10 mins followed by Escherichia coli O6:K2:H1-stimulation and measured after 180 mins by UPLC-MS/MS analysis relative to control
Macrophage [11] = assay: Antiinflammatory activity in Escherichia coli O6:K2:H1-induced human M2 macrophage assessed as change in PGF2alpha level at 10 uM preincubated for 10 mins followed by Escherichia coli O6:K2:H1-stimulation and measured after 180 mins by UPLC-MS/MS analysis relative to control

Structure (SMILES): O=C(Cc1ccc(Oc2nc3ccccc3s2)cc1F)NCCc1ccc(F)cc1
- Activity (Macrophage [1]): 164%
- Activity (Macrophage [2]): 181%
- Activity (Macrophage [3]): 269%
- Activity (Macrophage [4]): 151%
- Activity (Macrophage [5]): 191%
- Activity (Macrophage [6]): 66%
- Activity (Macrophage [7]): 42%
- Activity (Macrophage [8]): 103%
- Activity (Macrophage [9]): 63%
- Activity (Macrophage [10]): 106%
- Activity (Macrophage [11]): 45%
